This is an account of results in patent publication US20100093863A1, “USE OF CITRULLINE FOR PREVENTING AN INCREASE IN PROTEIN CARBONYLATION AND FOR TREATING DISEASES RESULTING THEREFROM” (UNIVERSITE PARIS DESCARTESURE, priority 2007, published 2010).

Assay [1] has as its system carbonylation of the cerebral proteins. The experiment in a line: Carbonylation of cerebral proteins (DNPH assay, brain) in elderly rats. It counts as in vivo, Sprague-Dawley rats. On the procedure:
Male Sprague-Dawley rats (Charles River Laboratoires, L′Arbresles, France) aged 25 months are placed in individual cages in a thermostatically-controlled atmosphere (23°±1° C.), and subjected to a 12-hour light-darkness cycle (darkness from 8 h to 20 h). The manager of the programme is authorized (no. 75.522) by the Ministry of Agriculture and Forestry to carry out this type of experiment. Moreover, the use and the treatment of the laboratory animals comply with legislation (D2001-486) and are in accordance with European legislation (Official Journal of the European Community L358 Dec. 18, 1986).
(§1) The rats are acclimatized for 2 weeks during which spontaneous food consumption is measured. […]
AANE group (n=4): the animals receive a standard diet rendered isonitrogenous compared with that of the CIT group by the addition of non-essential amino acids (alanine, asparagine, glycine, serine, histidine, and proline in equimolar quantities) for 1 month. […]
The processes of oxidation of the proteins affecting the structure of the amino acids which comprise them are complex and all give rise to the formation of carbonyl groups. For this reason it was decided to carry out an overall evaluation of the oxidation of the muscle proteins by quantifying the carbonylated derivatives from a sample of 1 g of brain. […] One of the cups serves as a blank and the other to quantify the carbonyl groups. […]

The test system of assay [2] is carbonylation of muscle proteins. In words: Carbonylation of muscle proteins (DNPH assay, tibialis anterior) in malnourished-renourished rats. The format is in vivo, Sprague-Dawley rats. Particulars: rats aged 19 months, 12 weeks restricted diet, renourished one week with diet enriched with citrulline (5 g/kg/d); FIG. 1 column 4 versus column 3. On the procedure: Male Sprague-Dawley rats (Charles River Laboratoires, L'Arbresles, France) aged 19 months are placed in individual cages in a thermostatically-controlled atmosphere (23°±1° C.) and subjected to a 12-h light-darkness cycle (darkness from 8 h to 20 h). The manager of the programme is authorized (no. 75.522) by the Ministry of Agriculture and Forestry to carry out this type of experiment. Moreover, the use and the treatment of the laboratory animals comply with legislation (D2001-486) and are in accordance with European legislation (Official Journal of the European Community L358 Dec. 18, 1986).
as §1
The processes of oxidation of the proteins affecting the structure of the amino acids which comprise them are complex and all give rise to the formation of carbonyl groups. For this reason it was decided to carry out an overall evaluation of the oxidation of the muscle proteins by quantifying the carbonylated derivatives from a sample of 300 mg of tibialis anterior. […] The solubilized proteins are separated into two equal fractions in order to have two cups containing the same quantity of proteins (1-1.5 mg/ml). One of the cups serves as a blank and the other to quantify the carbonyl groups. […]

Take `NC(=O)NCCCC(N)C(=O)O` (stereo not drawn) [citrulline, 2-amino-5-(carbamoylamino)pentanoic acid]: in assay [1] (brain of rats aged 25 months, enriched standard diet for 1 month (CIT 1 g/kg/d; AANE isonitrogenous), Average ± ASD), the Carbonylated proteins was 164 ± 12 µmol/g. Further, the “decrease in the carbonylation of the cerebral proteins” value in assay [1] (elderly healthy rats, diet enriched with CIT (1 g/kg/d, 1 month) versus AANE group) is approximately 10%. For the same compound, the “increase in the carbonylation of muscle proteins accompanying malnutrition-renutrition” value in assay [2] is listed as “this phenomenon disappears completely”.
